Experimental data from patent US12103919B2, “3-(5-oxy)-1-oxoisoindolin-2-yl)piperidine-2,6-dione derivatives and uses thereof” (NOVARTIS AG, priority 2021, dated 2024).
Like-named read-outs stand apart in the source and are kept apart here.

Biological target: T1, WIZ (Homo sapiens, UniProt O95785+Q96SW2)
T1 construct: expressed in transfected cells
Assay: Quantification of WIZ protein levels in HiBit tag fusion protein assay (293T cells)
Format: cell-based
Parameters: Dmax: dose or concentration left out as unconfirmed
Experimental: The HiBit system from Promega was used to develop high-throughput and quantitative assays to measure changes in WIZ protein levels in response to compounds. The HiBit tag was derived from a split Nanoluciferase and has the following protein sequence: […] (SEQ ID NO: 1). The complementary fragment of Nanoluciferase (known as LgBit, from Promega), was added to the HiBit tag to form an active Nanoluciferase enzyme whose activity can be precisely measured. In this way, the levels of a fusion protein with the HiBit tag can be quantified in cell lysates.
Lentiviral vectors, based on the Invitrogen™ pLenti6.2/V5 DEST backbone were constructed that places the HiBit tag upstream of WIZ and expressed the fusion protein from an HSVTK promotor.
To ensure moderate and consistent expression of the HiBit-WIZ fusion protein across all cells in the population, stable cell lines were constructed from cells harboring a single copy of the construct. Lentivirus packaged with the constructs were made using the ViraPowerTMkit from Invitrogen™. 293T cells from ATCC (Catalog number: CRL-3216), were infected with the virus at low multiplicity of infection and selected by 5 μg/mL blasticidin in culture media for 2 weeks.
The levels of HiBit-WIZ tagged fusion proteins in compound-treated cell lines were measured as follows:
On day 1, cells were diluted to 1.0×10^6 cells/ml in normal growth medium. 20 μL of cell suspension were plated in each well of a solid white 384-well plate. Plates were incubated overnight in a 37° C. and 5% CO2 humidified tissue culture incubator.
On day 2, serial dilutions of compounds were made in 384-well plates. Compound plates were set up with DMSO in columns 1, 2, 23, 24, and 10-point compound dilution series in column 3-12 and column 13-22. 10 mM stock solution of compound were placed into column 3 or 13 and a 1:5 serial dilution was carried out until there was a 10-point dilution series per compound. 50 nL of diluted compounds were transferred into the plated cells by Echo® (Labcyte) acoustic transfer. The highest concentration of compound was 25 μM. Plates were incubated overnight (about 18 hours) in a 37° C. and 5% CO2 humidified tissue culture incubator.
On day 3, plates were removed from the incubator and allowed to equilibrate at room temperature for 60 minutes. HiBit substrate (Nano-Glo® HiBit Lytic Detection System, Promega Catalogue number: N3050) was added as described by the manufacturers protocols. Plates were incubated at room temperature for 30 minutes and luminescence was read using an EnVision® reader (PerkinElmer®). Data was analyzed and visualized using the Spotfire® software package.
WIZ Amax reflects the DMSO-normalized, curve-fitted percentage of WIZ-HiBit remaining at 25 uM. It was calculated by normalizing DMSO controls to 100%, parametric curve fitting of the dose response data (10-point, 5-fold), followed by calculation of response at 25 uM using the fitted equation.

[1] = HEK-293T; DMSO-normalized, curve-fitted percentage of WIZ-HiBit remaining at 25 uM; read-out: WIZ Amax
[2] = HEK-293T; at 25 uM, 100 − Amax; read-out: % degradation of WIZ (100 − Amax)
[3] = WIZ HiBit assay in 293T cells, about 18 hours, 10-point 5-fold dilution, top 25 μM; read-out: WIZ AC50
[4] = DMSO-normalized, curve-fitted percentage of WIZ-HiBit remaining at 25 uM
[5] = HEK-293T, read-out: % degradation of WIZ (100 − Amax)
[6] = read-out: WIZ AC50; WIZ HiBit assay in 293T cells, about 18 hours, 10-point 5-fold dilution, top 25 μM

T1 sequence (O95785 whole entry): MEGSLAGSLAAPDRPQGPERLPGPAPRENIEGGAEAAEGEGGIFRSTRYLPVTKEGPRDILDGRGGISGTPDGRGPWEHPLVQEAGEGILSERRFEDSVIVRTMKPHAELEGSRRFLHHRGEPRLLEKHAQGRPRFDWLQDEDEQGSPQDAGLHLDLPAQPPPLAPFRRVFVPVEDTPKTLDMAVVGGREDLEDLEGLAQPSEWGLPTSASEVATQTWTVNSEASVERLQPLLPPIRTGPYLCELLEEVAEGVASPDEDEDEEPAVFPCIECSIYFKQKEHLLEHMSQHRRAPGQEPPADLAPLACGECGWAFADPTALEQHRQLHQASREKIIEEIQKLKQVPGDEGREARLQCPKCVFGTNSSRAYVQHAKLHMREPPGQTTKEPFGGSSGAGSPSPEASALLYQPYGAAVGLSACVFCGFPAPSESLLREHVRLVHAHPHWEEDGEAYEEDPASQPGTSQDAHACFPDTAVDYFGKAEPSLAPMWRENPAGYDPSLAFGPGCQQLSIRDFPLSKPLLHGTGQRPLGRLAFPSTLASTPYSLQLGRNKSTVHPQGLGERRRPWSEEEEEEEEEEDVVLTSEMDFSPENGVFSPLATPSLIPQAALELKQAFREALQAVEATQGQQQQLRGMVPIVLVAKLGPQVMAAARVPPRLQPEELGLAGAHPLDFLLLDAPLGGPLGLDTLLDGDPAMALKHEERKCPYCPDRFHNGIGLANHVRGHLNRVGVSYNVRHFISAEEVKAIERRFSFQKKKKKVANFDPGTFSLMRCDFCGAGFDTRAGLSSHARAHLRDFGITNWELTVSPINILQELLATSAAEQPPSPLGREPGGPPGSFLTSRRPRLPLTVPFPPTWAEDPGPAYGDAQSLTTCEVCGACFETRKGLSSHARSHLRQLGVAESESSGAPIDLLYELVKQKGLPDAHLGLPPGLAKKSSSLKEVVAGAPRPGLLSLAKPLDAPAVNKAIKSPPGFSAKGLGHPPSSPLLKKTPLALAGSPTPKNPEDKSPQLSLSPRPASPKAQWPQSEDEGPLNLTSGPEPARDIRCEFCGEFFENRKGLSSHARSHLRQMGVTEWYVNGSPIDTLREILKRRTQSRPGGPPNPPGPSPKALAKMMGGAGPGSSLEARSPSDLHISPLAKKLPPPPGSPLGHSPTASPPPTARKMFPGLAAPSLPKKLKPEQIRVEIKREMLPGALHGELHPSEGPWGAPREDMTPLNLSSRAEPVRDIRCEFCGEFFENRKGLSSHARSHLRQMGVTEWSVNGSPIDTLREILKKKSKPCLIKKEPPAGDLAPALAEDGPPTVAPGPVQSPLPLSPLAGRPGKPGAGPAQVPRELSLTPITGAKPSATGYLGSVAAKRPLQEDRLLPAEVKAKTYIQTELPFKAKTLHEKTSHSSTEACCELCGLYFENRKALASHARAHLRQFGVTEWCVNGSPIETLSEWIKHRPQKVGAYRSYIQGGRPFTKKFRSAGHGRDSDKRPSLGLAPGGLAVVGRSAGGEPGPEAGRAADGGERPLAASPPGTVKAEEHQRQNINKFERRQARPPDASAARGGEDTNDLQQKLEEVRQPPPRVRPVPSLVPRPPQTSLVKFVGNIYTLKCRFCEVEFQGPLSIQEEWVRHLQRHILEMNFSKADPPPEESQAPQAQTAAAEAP
T1 sequence (Q96SW2 whole entry): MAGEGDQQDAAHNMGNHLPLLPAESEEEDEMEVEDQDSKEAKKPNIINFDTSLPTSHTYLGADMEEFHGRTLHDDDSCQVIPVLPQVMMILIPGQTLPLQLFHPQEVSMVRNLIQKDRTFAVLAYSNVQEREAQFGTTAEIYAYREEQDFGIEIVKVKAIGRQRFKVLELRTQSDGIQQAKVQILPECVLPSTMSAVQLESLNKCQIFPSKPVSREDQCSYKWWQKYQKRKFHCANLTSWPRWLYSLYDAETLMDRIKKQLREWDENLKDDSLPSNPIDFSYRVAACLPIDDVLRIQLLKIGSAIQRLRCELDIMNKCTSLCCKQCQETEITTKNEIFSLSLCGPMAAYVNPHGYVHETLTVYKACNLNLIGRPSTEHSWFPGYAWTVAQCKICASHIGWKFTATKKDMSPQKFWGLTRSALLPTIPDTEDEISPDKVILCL
T1 sequence (Q16531 whole entry partner): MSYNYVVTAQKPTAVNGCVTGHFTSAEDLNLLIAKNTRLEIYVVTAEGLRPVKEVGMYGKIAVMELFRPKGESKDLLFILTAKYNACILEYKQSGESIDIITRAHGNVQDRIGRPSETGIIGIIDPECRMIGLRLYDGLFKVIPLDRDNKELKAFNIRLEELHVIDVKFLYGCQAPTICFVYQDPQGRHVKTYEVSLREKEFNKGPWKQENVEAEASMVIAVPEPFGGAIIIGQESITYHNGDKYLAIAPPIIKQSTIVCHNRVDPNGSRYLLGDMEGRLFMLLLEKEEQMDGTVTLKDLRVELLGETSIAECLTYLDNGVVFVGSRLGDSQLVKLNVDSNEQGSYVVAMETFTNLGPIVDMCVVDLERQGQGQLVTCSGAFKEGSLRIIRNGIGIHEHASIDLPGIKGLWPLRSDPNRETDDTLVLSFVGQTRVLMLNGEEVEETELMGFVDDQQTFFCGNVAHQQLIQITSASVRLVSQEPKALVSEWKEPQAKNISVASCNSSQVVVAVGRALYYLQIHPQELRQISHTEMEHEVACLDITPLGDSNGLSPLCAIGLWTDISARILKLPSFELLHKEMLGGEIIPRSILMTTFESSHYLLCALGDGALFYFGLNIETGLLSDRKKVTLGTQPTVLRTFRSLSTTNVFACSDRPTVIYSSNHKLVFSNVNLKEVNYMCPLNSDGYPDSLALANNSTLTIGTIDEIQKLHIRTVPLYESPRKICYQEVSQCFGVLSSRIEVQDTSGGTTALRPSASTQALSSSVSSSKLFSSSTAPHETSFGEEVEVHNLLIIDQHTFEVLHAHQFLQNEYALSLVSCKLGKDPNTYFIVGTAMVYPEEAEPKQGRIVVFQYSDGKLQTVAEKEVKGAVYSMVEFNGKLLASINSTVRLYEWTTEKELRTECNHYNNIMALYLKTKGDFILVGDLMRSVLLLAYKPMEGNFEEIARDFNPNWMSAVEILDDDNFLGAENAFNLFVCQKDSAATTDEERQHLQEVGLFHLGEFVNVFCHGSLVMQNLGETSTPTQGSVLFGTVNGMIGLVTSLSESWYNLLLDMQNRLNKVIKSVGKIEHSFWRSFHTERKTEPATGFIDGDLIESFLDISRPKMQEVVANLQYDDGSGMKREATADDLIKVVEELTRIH

remaining activity at 25 µM [1]	Dmax at 25 µM [2]	DC50 [3]	SMILES	also measured
97.6%	–	> 25000 nM	CC[C@H](C)N1CCC(C)(C)C(Oc2ccc3c(c2)CN(C2CCC(=O)NC2=O)C3=O)C1 (single isomer, unassigned) [Example 50]	% degradation of WIZ (100 − Amax) (at 25 uM, 100 − Amax): 2.38%
–	–	200 nM	CC[C@H](C)N1CCC(C)(C)C(Oc2ccc3c(c2)CN(C2CCC(=O)NC2=O)C3=O)C1 (single isomer, unassigned) [Example 51]	WIZ Amax [4]: 87.19%; % degradation of WIZ (100 − Amax) (at 25 uM, 100 − Amax): 12.81%
26.8%	73.2%	2 nM	CC(C)CN1CCC[C@@H](Oc2ccc3c(c2)CN(C2CCC(=O)NC2=O)C3=O)C1 (stereo partly drawn) [Example 3, 3-(5-(((R)-1-isobutylpiperidin-3-yl)oxy)-1-oxoisoindolin-2-yl)piperidine-2,6-dione]	–
64.4%	35.6%	110 nM	O=C1CCC(N2Cc3cc(O[C@@H]4CCCN(CC5COC5)C4)ccc3C2=O)C(=O)N1 (stereo partly drawn) [Example 4, 3-(5-(((R)-1-(oxetan-3-ylmethyl)piperidin-3-yl)oxy)-1-oxoisoindolin-2-yl)piperidine-2,6-dione]	–
77.3%	22.7%	55 nM	O=C1CCC(N2Cc3cc(O[C@@H]4CCCN(CC5CCC(F)(F)CC5)C4)ccc3C2=O)C(=O)N1 (stereo partly drawn) [Example 5, 3-(5-(((R)-1-((4,4-difluorocyclohexyl)methyl)piperidin-3-yl)oxy)-1-oxoisoindolin-2-yl)piperidine-2,6-dione]	–
86.7%	13.3%	31 nM	O=C1CCC(N2Cc3cc(O[C@@H]4CCCN(CC5CCCCC5)C4)ccc3C2=O)C(=O)N1 (stereo partly drawn) [Example 6, 3-(5-(((R)-1-(cyclohexylmethyl)piperidin-3-yl)oxy)-1-oxoisoindolin-2-yl)piperidine-2,6-dione]	–
38.9%	61.1%	1.1 nM	O=C1CCC(N2Cc3cc(O[C@@H]4CCCN(CC5CCC5)C4)ccc3C2=O)C(=O)N1 (stereo partly drawn) [Example 7, 3-(5-(((R)-1-(cyclobutylmethyl)piperidin-3-yl)oxy)-1-oxoisoindolin-2-yl)piperidine-2,6-dione]	–
33%	67%	28 nM	CCCN1CCC[C@@H](Oc2ccc3c(c2)CN(C2CCC(=O)NC2=O)C3=O)C1 (stereo partly drawn) [Example 8, 3-(1-oxo-5-(((R)-1-propylpiperidin-3-yl)oxy)isoindolin-2-yl)piperidine-2,6-dione]	–
–	–	4.2 nM	CC(C)N1CCC[C@@H](Oc2ccc3c(c2)CN(C2CCC(=O)NC2=O)C3=O)C1 (stereo partly drawn) [Example 9, 3-(5-(((R)-1-isopropylpiperidin-3-yl)oxy)-1-oxoisoindolin-2-yl)piperidine-2,6-dione]	Dmax (HEK-293T, read-out: % degradation of WIZ (100 − Amax), 100 − Amax): 71.5%; remaining activity at 25 µM (HEK-293T, read-out: WIZ Amax, DMSO-normalized, curve-fitted percentage of WIZ-HiBit remaining at 25 uM): 28.5%
45.5%	54.5%	33 nM	O=C1CCC(N2Cc3cc(O[C@@H]4CCCN(C5CCOCC5)C4)ccc3C2=O)C(=O)N1 (stereo partly drawn) [Example 10, 3-(1-oxo-5-(((R)-1-(tetrahydro-2H-pyran-4-yl)piperidin-3-yl)oxy)isoindolin-2-yl)piperidine-2,6-dione]	–
56.4%	43.6%	110 nM	O=C1CCC(N2Cc3cc(O[C@@H]4CCCN(C5CC6(COC6)C5)C4)ccc3C2=O)C(=O)N1 (stereo partly drawn) [Example 11, 3-(5-(((R)-1-(2-oxaspiro[3.3]heptan-6-yl)piperidin-3-yl)oxy)-1-oxoisoindolin-2-yl)piperidine-2,6-dione]	–
68.5%	31.5%	130 nM	O=C1CCC(N2Cc3cc(O[C@@H]4CCCN(C5COC5)C4)ccc3C2=O)C(=O)N1 (stereo partly drawn) [Example 12, 3-(5-(((R)-1-(oxetan-3-yl)piperidin-3-yl)oxy)-1-oxoisoindolin-2-yl)piperidine-2,6-dione]	–
–	–	–	CCn1cc(CN2CCC[C@@H](Oc3ccc4c(c3)CN(C3CCC(=O)NC3=O)C4=O)C2)cn1 (stereo partly drawn) [Example 14, 3-(5-(((R)-1-((1-ethyl-1H-pyrazol-4-yl)methyl)piperidin-3-yl)oxy)-1-oxoisoindolin-2-yl)piperidine-2,6-dione]	Dmax [5]: 59.3%; remaining activity at 25 µM (HEK-293T, read-out: WIZ Amax): 40.7%; DC50 [6]: 57 nM
40.9%	59.1%	2.5 nM	CC(C)CN1CCC2(CC2)[C@@H](Oc2ccc3c(c2)CN(C2CCC(=O)NC2=O)C3=O)C1 (stereo partly drawn) [Example 16, 3-(5-(((R)-6-isobutyl-6-azaspiro[2.5]octan-4-yl)oxy)-1-oxoisoindolin-2-yl)piperidine-2,6-dione]	–
27.8%	72.2%	14 nM	CC[C@H](C)N1CCC2(CC2)[C@@H](Oc2ccc3c(c2)CN(C2CCC(=O)NC2=O)C3=O)C1 (stereo partly drawn) [Example 17, 3-(5-(((R)-6-((S)-sec-butyl)-6-azaspiro[2.5]octan-4-yl)oxy)-1-oxoisoindolin-2-yl)piperidine-2,6-dione]	–
–	–	–	CCN1C[C@H](Oc2ccc3c(c2)CN(C2CCC(=O)NC2=O)C3=O)CC[C@H]1C (stereo partly drawn) [Example 23, 3-(5-(((3R,6R)-1-ethyl-6-methylpiperidin-3-yl)oxy)-1-oxoisoindolin-2-yl)piperidine-2,6-dione]	Dmax [5]: 57.7%; remaining activity at 25 µM (HEK-293T, read-out: WIZ Amax): 42.3%; DC50 [6]: 30 nM
47.3%	52.7%	10 nM	CC#CCN1CCC[C@@H](Oc2ccc3c(c2)CN(C2CCC(=O)NC2=O)C3=O)C1 (stereo partly drawn) [Example 24, 3-(5-(((R)-1-(but-2-yn-1-yl)piperidin-3-yl)oxy)-1-oxoisoindolin-2-yl)piperidine-2,6-dione]	–

SMILES	remaining activity at 25 µM [1]	Dmax at 25 µM [2]	DC50 [3]	also measured
CCN1CCC(C)(C)C(Oc2ccc3c(c2)CN(C2CCC(=O)NC2=O)C3=O)C1 (single isomer, unassigned) [Example 49, 3-(5-((1-ethyl-4,4-dimethylpiperidin-3-yl)oxy)-1-oxoisoindolin-2-yl)piperidine-2,6-dione]	91.4%	8.63%	83 nM	–
CCN1C[C@H](OC)C[C@@H](Oc2ccc3c(c2)CN(C2CCC(=O)NC2=O)C3=O)C1 (single isomer, unassigned) [Example 65-1]	18.1%	81.9%	1.4 nM	–
CCN1C[C@H](OC)C[C@@H](Oc2ccc3c(c2)CN(C2CCC(=O)NC2=O)C3=O)C1 (single isomer, unassigned) [Example 65-2]	–	–	1.2 nM	WIZ Amax [4]: 19.67%; % degradation of WIZ (100 − Amax) (at 25 uM, 100 − Amax): 80.33%
CCN1C[C@H](C)C[C@@H](Oc2ccc3c(c2)CN(C2CCC(=O)NC2=O)C3=O)C1 (single isomer, unassigned) [Example 76-1]	13.8%	86.2%	1.6 nM	–
CCN1C[C@H](C)C[C@@H](Oc2ccc3c(c2)CN(C2CCC(=O)NC2=O)C3=O)C1 (single isomer, unassigned) [Example 76-2]	–	–	0.6 nM	WIZ Amax [4]: 12.82%; % degradation of WIZ (100 − Amax) (at 25 uM, 100 − Amax): 87.18%
CCN1CCC[C@H](Oc2ccc3c(c2)CN(C2CCC(=O)NC2=O)C3=O)C1 (stereo partly drawn) [Example 2, 3-(5-(((S)-1-ethylpiperidin-3-yl)oxy)-1-oxoisoindolin-2-yl)piperidine-2,6-dione]	–	–	360 nM	Dmax [5]: 11.1%; remaining activity at 25 µM (HEK-293T, read-out: WIZ Amax): 88.9%
CCN1CCC2(CC2)[C@@H](Oc2ccc3c(c2)CN(C2CCC(=O)NC2=O)C3=O)C1 (stereo partly drawn) [Example 15, 3-(5-(((R)-6-ethyl-6-azaspiro[2.5]octan-4-yl)oxy)-1-oxoisoindolin-2-yl)piperidine-2,6-dione]	–	–	8.4 nM	Dmax [5]: 80%; remaining activity at 25 µM (HEK-293T, read-out: WIZ Amax): 20%
